From patent US11708367B2, “Compounds for the treatment of kinase-dependent disorders” (Exelixis, Inc., priority 2018, dated 2023)

Columns and labels:
Type in all cases: cell-based
AXL = AXL (Homo sapiens (Human), UniProt P30530); assay: AXL autophosphorylation ELISA in A-172 cells; conditions: cellular, Gas6-stimulated, phospho-AXL ELISA
Description: A-172 glioblastoma cells (ATCC #CRL-1620) were seeded at 2.5×10^5 cells/well onto 24-well plates (Greiner #662165), in DMEM (Thermo Fisher #11995-040) containing 10% FBS (Thermo Fisher #26140-079), 1% MEM NEAA (Thermo Fisher #11140-050), 1% GlutaMax (Thermo Fisher #35050-061), and 1% Penicillin Streptomycin (Thermo Fisher #15140-122). A-172 cells were incubated at 37° C., 5% CO2 for 24 h and then starved for 24 h in serum-free medium. Test compounds were serially diluted to produce an 8-point dose curve in fresh serum-free medium to a final concentration of 0.3% DMSO (vehicle) and added to the cells and incubated for 1 h. Cells were then stimulated with 1 μg/mL recombinant human Gas6 (R&D Systems #885-GSB-500) for 15 min, washed with cold PBS, and immediately lysed with 150 μL of cold IX lysis buffer [20 mM Tris, 137 mM sodium chloride, 2 mM EDTA, 10% glycerol, 1% NP-40 alternative, 1 mM activated sodium orthovanadate, 1 mM PefaBloc SC (Sigma-Aldrich #11429868001), protease/phosphatase inhibitor tablet (Thermo Fisher #A32959)]. Lysates were collected and 100 μL/well added into the human phospho-AXL Duo Set IC ELISA (R&D Systems #DYC2228-2). Assay was performed according to manufacturer's instructions and sample phospho-AXL concentrations were extrapolated using human phospho-AXL control (R&D Systems #841645) as a standard. Positive control wells (100% activity) contained Gas6-stimulated, DMSO-treated cell lysates. Negative control wells (0% activity) contained Gas6-stimulated, reference inhibitor-treated cell lysates. IC50 values were calculated by nonlinear regression analysis using a 4-parameter logistic curve fit in ActivityBase XL (IDBS).

KDR = KDR (Homo sapiens (Human), UniProt P35968); assay: KDR autophosphorylation ELISA in HUVEC cells; conditions: cellular, VEGF165-stimulated, phospho-KDR ELISA
Description: Human umbilical vein endothelial cells or HUVEC (Lonza #C2519A) were seeded at 2×10^4 cells/well onto 96-well plates (Corning #3904), in EGM-2 growth medium (Lonza #CC-3162) containing 1% Penicillin Streptomycin (Thermo Fisher #15140-122). HUVEC cells were incubated at 37° C., 5% CO2 for 24 h and then starved for 24 h in serum-free EBM-2 basal medium (Lonza #CC-3156) containing 1% Penicillin Streptomycin. Test compounds were serially diluted to produce an 8-point dose curve in fresh serum-free medium to a final concentration of 0.3% DMSO (vehicle) and added to the cells and incubated for 1 h. Cells were then stimulated with 100 ng/mL recombinant human VEGF165 (R&D Systems #293-VE-500) for 5 min, washed with cold PBS, and immediately lysed with 130 μL of cold 1× lysis buffer [20 mM Tris, 137 mM sodium chloride, 2 mM EDTA, 10% glycerol, 1% NP-40 alternative, 1 mM activated sodium orthovanadate, 1 mM PefaBloc SC (Sigma-Aldrich #11429868001), protease/phosphatase inhibitor tablet (Thermo Fisher #A32959)]. Lysates were collected and 100 μL/well added into the human phospho-KDR Duo Set IC ELISA (R&D Systems #DYC 1766-2). Assay was performed according to manufacturer's instructions and sample phospho-KDR concentrations were extrapolated using human phospho-KDR control (R&D Systems #841421) as a standard. Positive control wells (100% activity) contained VEGF165-stimulated, DMSO-treated cell lysates. Negative control wells (0% activity) contained non-stimulated cell lysates. IC50 values were calculated by nonlinear regression analysis using a 4-parameter logistic curve fit in ActivityBase XE (IDBS).

Met = Met (Homo sapiens (Human), UniProt P08581); assay: Met autophosphorylation ELISA in PC-3 cells; conditions: cellular, HGF-stimulated, phospho-Met ELISA, read-out: c-Met IC50
Description: PC-3 prostate cancer cells (ATCC #CRL-1435) were seeded at 4×10^4 cells/well onto 24-well plates (Greiner #662165), in DMEM (Thermo Fisher #11995-040) containing 10% FBS (Thermo Fisher #26140-079), 1% MEM NEAA (Thermo Fisher #11140-050), 1% GlutaMax (Thermo Fisher #35050-061), and 1% Penicillin Streptomycin (Thermo Fisher #15140-122). PC-3 cells were incubated at 37° C., 5% CO2 for 24 h and then starved for 3 h in serum-free medium. Test compounds were serially diluted to produce an 8-point dose curve in fresh serum-free medium to a final concentration of 0.3% DMSO (vehicle) and added to the cells and incubated for 1 h. Cells were then stimulated with 100 ng/mL recombinant human HGF (R&D Systems #294-HG-250) for 10 min, washed with cold PBS, and immediately lysed with 130 μL of cold IX lysis buffer [20 mM Tris, 137 mM sodium chloride, 2 mM EDTA, 10% glycerol, 1% NP-40 alternative, 1 mM activated sodium orthovanadate, 1 mM PefaBloc SC (Sigma-Aldrich #11429868001), protease/phosphatase inhibitor tablet (Thermo Fisher #A32959)]. Lysates were clarified by centrifugation and 100 μL/well added into the PathScan phospho-Met (panTyr) Sandwich ELISA (Cell Signaling Technology #7333). Assay was performed according to manufacturer's instructions. Positive control wells (100% activity) contained HGF-stimulated, DMSO-treated cell lysates. Negative control wells (0% activity) contained HGF-stimulated, reference inhibitor-treated cell lysates. IC50 values were calculated by nonlinear regression analysis using a 4-parameter logistic curve fit in ActivityBase XL (IDBS).

Sequence of Met (P08581 25-1390): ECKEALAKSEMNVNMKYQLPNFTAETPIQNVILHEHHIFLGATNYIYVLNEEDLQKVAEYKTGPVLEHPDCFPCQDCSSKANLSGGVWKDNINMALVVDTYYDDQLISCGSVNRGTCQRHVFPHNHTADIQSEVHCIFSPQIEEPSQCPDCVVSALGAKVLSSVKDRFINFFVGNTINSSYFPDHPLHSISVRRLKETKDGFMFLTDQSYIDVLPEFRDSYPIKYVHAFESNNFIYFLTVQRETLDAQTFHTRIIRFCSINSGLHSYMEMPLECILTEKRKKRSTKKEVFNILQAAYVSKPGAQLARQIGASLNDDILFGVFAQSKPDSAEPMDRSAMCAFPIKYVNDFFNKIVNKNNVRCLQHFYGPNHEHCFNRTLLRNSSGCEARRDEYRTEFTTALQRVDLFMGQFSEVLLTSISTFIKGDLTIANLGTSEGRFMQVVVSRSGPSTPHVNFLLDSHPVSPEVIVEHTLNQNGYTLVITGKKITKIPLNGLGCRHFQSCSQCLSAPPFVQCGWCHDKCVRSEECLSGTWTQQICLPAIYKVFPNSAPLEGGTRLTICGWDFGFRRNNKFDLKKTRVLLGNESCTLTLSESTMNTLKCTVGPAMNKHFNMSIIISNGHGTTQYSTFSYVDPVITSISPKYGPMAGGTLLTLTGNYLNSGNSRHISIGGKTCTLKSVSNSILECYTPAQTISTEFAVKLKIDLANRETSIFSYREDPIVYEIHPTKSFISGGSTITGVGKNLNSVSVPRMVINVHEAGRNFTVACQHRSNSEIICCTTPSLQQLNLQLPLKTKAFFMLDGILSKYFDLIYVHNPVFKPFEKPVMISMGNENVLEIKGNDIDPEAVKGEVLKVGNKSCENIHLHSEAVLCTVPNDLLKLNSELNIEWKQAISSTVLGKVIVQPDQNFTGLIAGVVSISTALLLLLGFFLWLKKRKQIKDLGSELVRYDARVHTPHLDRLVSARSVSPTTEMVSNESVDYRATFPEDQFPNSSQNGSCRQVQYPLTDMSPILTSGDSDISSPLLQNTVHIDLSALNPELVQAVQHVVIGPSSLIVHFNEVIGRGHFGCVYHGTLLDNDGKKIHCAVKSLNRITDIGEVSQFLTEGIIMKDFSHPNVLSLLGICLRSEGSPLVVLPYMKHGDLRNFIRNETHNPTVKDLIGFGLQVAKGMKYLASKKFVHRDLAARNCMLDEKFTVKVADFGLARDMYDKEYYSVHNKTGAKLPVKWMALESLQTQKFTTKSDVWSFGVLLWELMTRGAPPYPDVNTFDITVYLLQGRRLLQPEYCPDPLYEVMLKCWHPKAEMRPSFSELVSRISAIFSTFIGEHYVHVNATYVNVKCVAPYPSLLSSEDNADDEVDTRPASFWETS
Sequence of AXL (P30530 26-894): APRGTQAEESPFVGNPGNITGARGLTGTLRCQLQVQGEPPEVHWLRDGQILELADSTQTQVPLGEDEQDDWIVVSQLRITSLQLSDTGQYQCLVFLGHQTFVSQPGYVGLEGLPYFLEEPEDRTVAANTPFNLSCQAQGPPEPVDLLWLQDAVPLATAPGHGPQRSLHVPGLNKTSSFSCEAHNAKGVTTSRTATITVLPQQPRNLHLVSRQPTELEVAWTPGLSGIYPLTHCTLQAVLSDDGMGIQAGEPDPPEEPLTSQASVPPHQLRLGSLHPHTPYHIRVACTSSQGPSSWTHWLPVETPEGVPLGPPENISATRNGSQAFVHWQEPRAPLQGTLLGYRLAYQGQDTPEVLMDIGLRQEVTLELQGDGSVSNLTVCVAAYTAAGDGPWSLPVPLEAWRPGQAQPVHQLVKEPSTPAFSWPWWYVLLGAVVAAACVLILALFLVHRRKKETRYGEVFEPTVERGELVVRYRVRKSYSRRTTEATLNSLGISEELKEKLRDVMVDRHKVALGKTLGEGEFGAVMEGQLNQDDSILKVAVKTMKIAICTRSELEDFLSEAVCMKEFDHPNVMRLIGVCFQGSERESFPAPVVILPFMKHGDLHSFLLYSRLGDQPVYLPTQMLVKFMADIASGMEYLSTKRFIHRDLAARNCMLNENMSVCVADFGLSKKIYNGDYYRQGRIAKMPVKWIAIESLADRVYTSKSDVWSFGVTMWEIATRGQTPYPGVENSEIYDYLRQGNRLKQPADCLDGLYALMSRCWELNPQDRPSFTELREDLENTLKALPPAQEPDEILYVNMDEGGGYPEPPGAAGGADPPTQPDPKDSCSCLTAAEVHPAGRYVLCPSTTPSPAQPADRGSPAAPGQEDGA
Sequence of KDR (P35968 20-1356): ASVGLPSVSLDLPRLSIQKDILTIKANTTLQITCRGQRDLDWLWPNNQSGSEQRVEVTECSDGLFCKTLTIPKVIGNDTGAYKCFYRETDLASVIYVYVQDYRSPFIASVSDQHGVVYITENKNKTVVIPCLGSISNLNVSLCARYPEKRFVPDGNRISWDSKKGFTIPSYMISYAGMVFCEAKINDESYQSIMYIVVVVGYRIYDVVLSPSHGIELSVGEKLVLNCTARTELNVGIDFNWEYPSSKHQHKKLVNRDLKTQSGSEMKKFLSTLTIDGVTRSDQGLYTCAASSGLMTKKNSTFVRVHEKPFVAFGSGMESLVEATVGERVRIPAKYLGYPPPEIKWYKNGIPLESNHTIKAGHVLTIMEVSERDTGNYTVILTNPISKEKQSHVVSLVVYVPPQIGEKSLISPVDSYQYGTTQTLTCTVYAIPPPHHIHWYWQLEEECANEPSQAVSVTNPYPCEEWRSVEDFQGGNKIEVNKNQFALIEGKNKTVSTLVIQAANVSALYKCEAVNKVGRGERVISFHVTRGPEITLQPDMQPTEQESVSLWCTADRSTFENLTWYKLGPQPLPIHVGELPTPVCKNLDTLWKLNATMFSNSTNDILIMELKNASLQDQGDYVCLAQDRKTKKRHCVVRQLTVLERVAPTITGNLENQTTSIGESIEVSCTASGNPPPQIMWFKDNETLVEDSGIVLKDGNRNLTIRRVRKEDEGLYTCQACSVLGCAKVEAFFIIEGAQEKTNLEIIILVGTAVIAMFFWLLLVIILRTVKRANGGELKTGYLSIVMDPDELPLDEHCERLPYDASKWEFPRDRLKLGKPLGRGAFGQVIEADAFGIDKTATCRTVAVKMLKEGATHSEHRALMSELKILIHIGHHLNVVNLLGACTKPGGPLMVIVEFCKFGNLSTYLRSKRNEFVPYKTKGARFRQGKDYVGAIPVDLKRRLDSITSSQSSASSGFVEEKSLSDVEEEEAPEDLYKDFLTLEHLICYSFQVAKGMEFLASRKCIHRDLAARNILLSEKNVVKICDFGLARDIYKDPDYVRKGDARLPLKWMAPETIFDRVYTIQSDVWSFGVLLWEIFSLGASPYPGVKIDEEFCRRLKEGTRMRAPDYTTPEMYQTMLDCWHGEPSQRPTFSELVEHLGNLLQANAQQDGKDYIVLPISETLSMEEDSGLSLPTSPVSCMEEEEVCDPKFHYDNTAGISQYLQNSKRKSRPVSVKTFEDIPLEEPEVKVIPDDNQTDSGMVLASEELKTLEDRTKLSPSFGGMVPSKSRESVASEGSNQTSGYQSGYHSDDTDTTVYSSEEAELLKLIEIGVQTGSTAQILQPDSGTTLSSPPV

SMILES	IC50 (AXL) [µM]	IC50 (KDR) [µM]	IC50 (Met) [µM]
COc1cc2nccc(Oc3ccc(NC(=O)C4(C(=O)Nc5ccc(F)cc5)CC4)cc3Cl)c2nc1C(N)=O [Compound 169, 1-N′-[4-[(6-carbamoyl-7-methoxy-1,5-naphthyridin-4-yl)oxy]-3-chlorophenyl]-1-N-(4-fluorophenyl)cyclo-propane-1,1-dicarboxamide]	0.01 to 0.1	0.01 to 0.1	0.01 to 0.1
CNC(=O)c1nc2c(Oc3ccc(NC(=O)C4(C(=O)Nc5ccc(F)cc5)CC4)cc3)ccnc2cc1OC [Compound 172, 1-N′-(4-fluorophenyl)-1-N-[4-[[7-methoxy-6-(methyl-carbamoyl)-1,5-naphthyridin-4-yl]oxy]phenyl]cyclo-propane-1,1-dicarboxamide]	0.1 to 0.3	> 0.3	> 0.3
CNC(=O)c1nc2c(Oc3ccc(NC(=O)C4(C(=O)Nc5ccc(F)cc5)CC4)cc3F)ccnc2cc1OC [Compound 173, 1-N′-[3-fluoro-4-[[7-methoxy-6-(methylcarbamoyl)-1,5-naphthyridin-4-- yl]oxy]phenyl]-1-N-(4-fluoro-phenyl)cyclopropane-1,1-dicarboxamide]	0.1 to 0.3	0.1 to 0.3	0.1 to 0.3

Next, values leading:

IC50 (AXL) [µM]	IC50 (KDR) [µM]	IC50 (Met) [µM]	SMILES
> 0.3	> 0.3	0.1 to 0.3	COc1cc2nccc(Oc3ccc(NC(=O)C4(C(=O)Nc5ccc(F)cc5)CC4)cc3)c2nc1C(=O)N(C)C [Compound 174, 1-N-[4-[[6-(dimethyl-carbamoyl)-7-methoxy-1,5-naphthyridin-4-yl]oxy]phenyl]-1-N′-(4-fluorophenyl)cyclopropane-1,1-dicarboxamide]
≤ 0.01	0.1 to 0.3	0.01 to 0.1	COc1cnc2c(Oc3cc(F)c(NC(=O)C4(C(=O)Nc5ccc(F)cc5)CC4)cc3F)ccnc2c1 [Compound 176, 1-N′-[2,5-difluoro-4-[(7-methoxy-1,5-naphthyridin-4-yl)oxy]phenyl]-1-N-(4-fluorophenyl)cyclopropane-1,1-dicarboxamide]
> 0.3	> 0.3	> 0.3	COc1cc2nccc(Oc3ccc(NC(=O)C4(C(=O)Nc5ccc(F)cc5)CC4)cc3)c2nc1-c1cn[nH]c1 [Compound 183, 1-N′-(4-fluorophenyl)-1-N-[4-[[7-methoxy-6-(1H-pyrazol-4-yl)-1,5-naphthyridin-4-yl]oxy]phenyl]cyclopropane-1,1-dicarboxamide]
> 0.3	> 0.3	> 0.3	COc1cc2nccc(Oc3ccc(NC(=O)C4(C(=O)Nc5ccc(F)cc5)CC4)cc3)c2nc1-c1ccnn1C [Compound 184, 1-N′-(4-fluorophenyl)-1-N-[4-[[7-methoxy-6-(2-methyl-pyrazol-3-yl)-1,5-naphthyridin-4-yl]oxy]phenyl]cyclo-propane-1,1-dicarboxamide]
